Patent US20030170249A1, “Vaccines directed to cancer-associated carbohydrate antigens” (priority 1999, published 2003)
Where two headings read alike, the source gives them in different places. Where no end group is shown, it is not given here.

Legend:
[1] = tested on: TA3Ha cells; experiment: Tumor growth suppression by vaccination with Tn antigen (A-OSM or A-BSM), Ribi adjuvant and cyclophosphamide; type: in vivo, mouse; settings: CP only; 700 TA3Ha cells i.p.
Experimental: Tumor growth suppression was tested using A-OSM or A-BSM with Ribi adjuvant, which is essentially composed of trehalose dimycolate and monophosphoryl Lipid A, the effective component of mycobacteria known to stimulate immune response of T as well as B cells (Ribi et al., Clin. Immunol. Newsletter 6:33-36, 1985). A-OSM and A-BSM were produced by treatment with neuraminidase as described above. […] For example, 100 μg of A-OSM or A-BSM were mixed with 500 μg of complete Ribi adjuvant and injected subcutaneously at day −7 (i.e., 7 days before tumor cell inoculation). On day 0, 700 TA3Ha cells were injected intraperitoneally. On day 1, CP (75 mg/kg) was injected intraperitoneally. On days 2, 5, 12, and 19, 100 μg antigen/500 μg Ribi adjuvant complex was injected subcutaneously. Another experimental group was injected with CP-Ribi on days 2, 5, 12, and 19, respectively.

[2] = tested on: TA3Ha cells; experiment: Synthetic Tn-KLH/Ribi tumor vaccine, TA3Ha challenge i.p.; type: in vivo, mouse; settings: control groups; TA3Ha i.p. day 0, CP day 1
Experimental: Mice were preimmunized at day −7 with 50 μg of synthetic Tn/Ribi, s.c. and were challenged with TA3Ha cells, i.p. at day 0.
Mice were immunized with 30 μg of monomeric Tn-KLH/Ribi or dimeric Tn-KLH/Ribi on days −7, 2, 5, 12 and 19.

[3] = tested on: V alpha 14 TCR; settings: cited from earlier work
[4] = tested on: V alpha 14 NKT cells; settings: cited from earlier work
[5] = tested on: B16 melanoma and mouse colonic carcinoma Colon 26; settings: mice bearing various tumors; cited from earlier work
[6] = tested on: antibody to Le^y; settings: cited from earlier work
[7] = tested on: MHC Class I Kb / Db; settings: peptides binding MHC Class I Kb; cited from earlier work
[8] = tested on: B16 melanoma cells of clones F-1 or F-10; experiment: Active immunization with GM3 lactone, B16 melanoma development; type: in vivo; settings: immunized BALB/c mice
Experimental: Ten BALB/c mice were immunized with native GM3 or GM3 lactone coated on acid-treated Salmonella minnesota. Immunization was carried out by intravenous injection of 200 μl of the GM3 or GM3 lactone preparation once per week for 4 weeks. Subsequently, 1.0×10^5 B16 melanoma cells of clones F-1 or F-10, were subcutaneously injected into the back of the mice and tumor growth was observed after 20 days. As controls, other glycolipids, such as paragloboside coated on acid-treated Salmonella minnesota, and Salmonella minnesota alone, were used in the same amounts as discussed above.
In the table, the numbers indicate the number of animal which died over the total number of animals immunized.

[9] = cited from earlier work

With O=P1(N(CCCl)CCCl)NCCCO1 (stereo not shown) [CP, Cyclophosphamide] the “most animals had died by” value [1] was 20 to 30 days, the tumor growth suppression [1] was “some tumor growth suppression” and the “survival of tumor challenge” value [2] was “did not survive tumor challenge”.
For CCCCCCCCCCCCCCCCCCCCCCCCCC(=O)N[C@@H](CO[C@H]1O[C@H](CO)[C@H](O)[C@H](O)[C@H]1O)[C@H](O)[C@H](O)CCCCCCCCCCCCCC [alpha-GalCer], the “binding to V alpha 14 TCR” value [3] is given as “bind V alpha 14 TCR”, the “proliferation of V alpha 14 NKT cells” value [4] is given as “stimulate proliferation” and the “tumor growth and metastasis” value [5] is given as “abrogated tumor growth and metastasis”.
For “APWLYGPA [peptide selected from phage display library with antibody to Le^y]”, the “binding of the antibody to Le^y” value [6] is given as “inhibited binding”.
In the case of “Di-Gal (Galα1-4Gal) oligosaccharide linked to N or P of FAPGNYPAL: di-Gal linked to MHC Class I Kb binding peptide FAPGNYPAL (also: di-Gal (Galα1-4Gal) linked to N or P)”, the “cytotoxic T cell response to the oligosaccharide residue” value [7] is given as “elicited a cytotoxic T cell response”.
For “Di-Gal (Galα1-4Gal) oligosaccharide linked to V or Q of RGYVYQGL: di-Gal linked to MHC Class I Kb binding peptide RGYVYQGL (also: di-Gal (Galα1-4Gal) linked to V or Q)”, the “cytotoxic T cell response to the oligosaccharide residue” value [7] is listed as “elicited a cytotoxic T cell response”.
In the case of GM3, the tumor growth reduced [8] is reported as “not”.
For GM3 lactone, the tumor growth reduced [8] is given as “reduced”, the “stability of the structure” value ([9]; acidic to neutral pH) is given as “relatively stable” and the “stability of the structure” value ([9]; alkaline pH) is given as “unstable”.
